Broadly, the melting point is the temperature of the solid-liquid transition.

The values that follow come from patent US7605164B2, “Compositions and methods for treating heart failure” (Cytokinetics, Inc., priority 2001, dated 2009).

Regarding `O=C(Nc1cc(Oc2cccnc2)cc(-c2ccccn2)c1)c1ccc(F)cc1` [Example 2, 4-Fluoro-N-[3-pyridin-2-yl-5-(pyridin-3-yloxy)-phenyl]-benzamide], the melting point lay in the range of 160 to 162 °C.
